In patent US20230390247A1, “BIPHENYL PYRROLIDINE AND BIPHENYL DIHYDROIMIDAZOLE DERIVATIVES FOR INHIBITING ACTIVITY OF 5-HT7 SEROTONIN RECEPTOR, AND PHARMACEUTICAL COMPOSITION COMPRISING SAME AS ACTIVE INGREDIENT” (priority 2020, published 2023):

Assays:
Type in all cases: cell-based
5-HT7R [1] = biological target: T1, 5-HT7R (Homo sapiens (Human), UniProt P34969); experiment: Tango assay (β-arrestin signaling system); conditions: HTLA cells transfected with 5-HT7R-TCS-tTA construct
Description: Tango assay was conducted using HTLA cells in order to investigate the activity of the β-arrestin signaling system. Prior to transfection, the culture medium was replaced from DMEM containing 10% FBS, 100 U/mL penicillin, 100 μg/mL streptomycin, 2 μg/mL puromycin and 100 μg/mL hygromycin B to DMEM containing 10% dialyzed FBS, 100 U/mL penicillin and 100 μg/mL streptomycin. 4 hours later, transfection was conducted using 20 μg of a 5-HT7R-TCS-tTA construct (5-HT7R Tango DNA). The transfected cells were prepared on a white, flat, clear-bottom, 384-well plate (Greiner) (15,000 cells/well, 20 μL/well) using DMEM containing 10% dialyzed FBS, 100 U/mL penicillin and 100 μg/mL streptomycin. 6 hours later, after removing the culture medium, the cells were treated with 10 μL of the compound solution. After culturing for 22 hours and removing the culture medium, the cells were treated with 20 μL of a BrightGlo reagent (Promega) diluted in a 1×HBSS, […], pH 7.4 buffer. After measuring luminescence using a Tecan microplate reader (Spark), IC50 value was obtained using the Prism 8.0 program (GraphPad Software).

5-HT7R [2] = biological target: T1, 5-HT7R; experiment: Schild plot for Tango assay; conditions: compounds at 5 μM, 10 μM and 30 μM with serotonin, read-out: pA2 (converted)
Description: Schild plots were constructed for the Tango assay in order to investigate the effect of the compounds on the activity of the β-arrestin signaling pathway. After culturing cells and replacing the culture medium as described in b) of Test Example 1, the cells were transfected and prepared on a plate. 6 hours later, the cells were treated with 10 μL of the solution of serotonin or the compounds at final concentrations of 5 μM, 10 μM and 30 μM. […] In addition, the pA2 value was obtained using the Excel software. The Schild plots and pA2 values of compound 23 and compound 30 according to the present disclosure are summarized in FIGS. 1A-1B, FIG. 2 and Table 8.

5-HT7R [3] = biological target: T1, 5-HT7R; experiment: cAMP assay (luminescence-based, GloSensor); conditions: HEK293 cells transfected with human 5-HT7R and GloSensor-22F
Description: For luminescence-based cAMP assay, HEK293 cells were cultured on a 150-mm dish. Prior to transfection, the culture medium was replaced from DMEM containing 10% FBS, 100 U/mL penicillin and 100 μg/mL streptomycin to DMEM containing 10% dialyzed FBS, 100 U/mL penicillin and 100 μg/mL streptomycin. 4 hours later, transfection was conducted using 10 μg of a human 5-HT7R plasmid and 10 μg of a GloSensor-22F plasmid (Promega). The transfected cells were prepared on a white, flat, clear-bottom, 384-well plate (Greiner) (15,000 cells/well, 20 μL/well). 6 hours later, after removing the culture medium, the cells were treated with 20 μL of a 3% Glosensor cAMP reagent containing luciferin in a 1×HBSS, […], pH 7.4 buffer. In addition, the compound of each of the examples was prepared at different concentrations in an assay buffer containing 0.1% bovine serum albumin. 30 minutes later, 10 μL of the compound solution was treated to the cells. After measuring luminescence using a Tecan microplate reader (Spark), IC50 value was obtained using the Prism 8.0 program (GraphPad Software).

T1 sequence (P34969 whole entry): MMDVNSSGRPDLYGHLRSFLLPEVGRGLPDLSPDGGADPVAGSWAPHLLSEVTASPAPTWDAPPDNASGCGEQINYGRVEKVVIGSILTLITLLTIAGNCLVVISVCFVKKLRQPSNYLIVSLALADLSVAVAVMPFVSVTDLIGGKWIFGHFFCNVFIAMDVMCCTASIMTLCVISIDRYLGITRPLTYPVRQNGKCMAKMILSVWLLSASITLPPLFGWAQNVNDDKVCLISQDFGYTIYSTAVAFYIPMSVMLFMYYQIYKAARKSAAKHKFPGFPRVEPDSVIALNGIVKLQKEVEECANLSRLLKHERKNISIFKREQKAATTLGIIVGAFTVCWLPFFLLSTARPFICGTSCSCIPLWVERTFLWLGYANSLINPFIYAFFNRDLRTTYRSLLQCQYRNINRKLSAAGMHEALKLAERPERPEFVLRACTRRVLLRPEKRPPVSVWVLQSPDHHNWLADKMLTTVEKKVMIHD

Row | SMILES | inhibition at 10 µM (5-HT7R [1]) | IC50 (5-HT7R [1]) | Kb (5-HT7R [2]) | inhibition at 10 µM (5-HT7R [3]) | IC50 (5-HT7R [3])
1 | COc1ccccc1-c1cccc(C2=NCCN2)c1 [Compound 30, 2-(2′-methoxy-[1,1′-biphenyl]-3-yl)-4,5-dihydro-1H-imidazole] | 40.6% | 39.8 µM | 1.26 µM | 94.1% | 2.58 µM
2 | c1ccc(-c2cccc(C3=NCCN3)c2)cc1 [Compound 23, 2-([1,1′-biphenyl]-3-yl)-4,5-dihydro-1H-imidazole] | 44.2% | 47.9 µM | 5.75 µM | 83.3% | 5.1 µM
3 | Clc1cccc(-c2cc(C3=NCCN3)ccc2Cl)c1 [Compound 36, 2-(3′,6-dichloro-[1,1′-biphenyl]-3-yl)-4,5-dihydro-1H-imidazole] | 44.8% | 10 µM | – | 52.4% | –
4 | COc1cccc(-c2cccc(C3=NCCN3)c2)c1 [Compound 31, 2-(3′-methoxy-[1,1′-biphenyl]-3-yl)-4,5-dihydro-1H-imidazole] | 27.8% | – | – | 72.5% | 5.77 µM
5 | Clc1ccc(-c2cc(C3=NCCN3)ccc2Cl)cc1 [Compound 37, 2-(4′,6-dichloro-[1,1′-biphenyl]-3-yl)-4,5-dihydro-1H-imidazole] | 39.6% | – | – | 43.3% | –
6 | Clc1cccc(-c2cccc(C3=NCCN3)c2)c1 [Compound 25, 2-(3′-chloro-[1,1′-biphenyl]-3-yl)-4,5-dihydro-1H-imidazole] | 43.6% | 10.5 µM | – | 50.9% | –
7 | Cc1ccc(-c2cccc(CN3CCCC3)c2)cc1 [Compound 7, 1-((4′-methyl-[1,1′-biphenyl]-3-yl)methyl)pyrrolidine] | 20.6% | – | – | 32.5% | –
8 | Clc1ccccc1-c1cc(CN2CCCC2)ccc1Cl [Compound 13, 1-((2′,6-dichloro-[1,1′-biphenyl]-3-yl)methyl)pyrrolidine] | 50.5% | – | – | 90.7% | 3.2 µM
9 | Cc1ccccc1-c1cc(C2=NCCN2)ccc1Cl [Compound 38, 2-(6-chloro-2′-methyl-[1,1′-biphenyl]-3-yl)-4,5-dihydro-1H-imidazole] | 31.7% | – | – | 51.4% | –
10 | COc1ccc(-c2cccc(C3=NCCN3)c2)cc1 [Compound 32, 2-(4′-methoxy-[1,1′-biphenyl]-3-yl)-4,5-dihydro-1H-imidazole] | 11.9% | – | – | 40.8% | –
11 | COc1cccc(OC)c1-c1cccc(C2=NCCN2)c1 [Compound 33, 2-(2′,6′-dimethoxy-[1,1′-biphenyl]-3-v1)-4 1 5-dihydro-1H-imidazole] | 14% | – | – | 32.8% | –
